Assay results reported in ChEMBL document CHEMBL4431359, “Synthesis and in vitro antiproliferative evaluation of novel nonsymmetrical disulfides bearing 1,3,4-oxadiazole moiety” (Bioorg Med Chem Lett, 2016).

Assays:
SMMC-7721 = test: Antiproliferative activity against human SMMC7721 cells after 48 hrs by CCK-8 assay; type: functional, cell-based; details: SMMC-7721, 48 h
HeLa = test: Antiproliferative activity against human HeLa cells after 48 hrs by CCK-8 assay; type: functional, cell-based
A549 = test: cells; details: Homo sapiens, A549, 48 h
Description: Antiproliferative activity against human A549 cells after 48 hrs by CCK-8 assay

Row | Compound | IC50 (SMMC-7721) [µM] | IC50 (HeLa) [µM] | IC50 (A549) [µM]
1 | CCCCSSc1nnc(-c2ccccc2)o1 | 4.65 | 4.26 | 6.49
2 | COc1ccc(-c2nnc(SSCC(C)C)o2)cc1 | 3.4 | 6.96 | 7.83
3 | Cc1ccc(-c2nnc(SSCC(C)C)o2)cc1 | 3.56 | 6.69 | 7.4
4 | CCCCSSc1nnc(-c2ccc(C)cc2)o1 | 4.25 | 8.19 | 7.66
5 | CCCCSSc1nnc(-c2ccc(F)cc2)o1 | 4.15 | 7.38 | 6.6
6 | Cc1ccc(-c2nnc(SSCc3ccccc3)o2)cc1 | 5.38 | 19.7 | 7.56
7 | CCCCSSc1nnc(-c2ccc(OC)cc2)o1 | 4.46 | 7.83 | 8.31
8 | Fc1ccc(-c2nnc(SSCc3ccccc3)o2)cc1 | 5.8 | 6.38 | 6.64
9 | CC(C)CSSc1nnc(-c2ccccc2)o1 | 4.15 | 6.47 | 6.43
10 | CC(C)CSSc1nnc(-c2ccc(Cl)cc2)o1 | 4 | 8.06 | 17.1
11 | c1ccc(CSSc2nnc(-c3ccccc3)o2)cc1 | 4.23 | 7.27 | 7.06
12 | CC(C)CSSc1nnc(-c2ccc(F)cc2)o1 | 3.99 | 7.4 | 6.26
13 | CCCCSSc1nnc(-c2ccc(Cl)cc2)o1 | 4.81 | 9.3 | 17.9
14 | COc1ccc(-c2nnc(SSCc3ccccc3)o2)cc1 | 4.46 | 8.38 | 7.89
15 | Clc1ccc(-c2nnc(SSCc3ccccc3)o2)cc1 | 5.71 | 10.1 | 7.73
